Test results published in US10047084B2, “Imidazolone derivatives, pharmaceutical compositions and uses thereof” (BEIJING FORELANDPHARMA CO. LTD., priority 2013, dated 2018).

What was measured:
PC-3 = experiment: CTG cell survival assay, PC-3; assay type: cell-based; settings: Homo sapiens, PC-3 cells
Summary of the method: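 Cells were exposed to compounds in a 3-fold dilution series, with a top final concentration of 10 uM in 0.1% DMSO. Viable cells were quantified by CellTiter-Glo ATP luminescence.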

[1] = molecular target: PI3K-alpha (PIK3CA/PIK3R1) (Homo sapiens (Human), UniProt P42336); experiment: PI3K-alpha enzyme activity assay (ADP Glo); assay type: biochemical; settings: read-out: Activity of inhibiting PI3K enzyme IC50
Text: 3. PI3K-alpha Enzyme Activity Assay: PI3K alpha-ADP Glo Assay was employed. In the determination of PI3K enzyme activity, the detection kit supplied by Promega (Promega, Cat #: V9101) was used to detect the inhibition effect of the compounds on the activity of PI3K enzyme. The adenosine diphosphate produced during the whole enzymic reactions was quantified. The resulting values were used to calculate the activity of PI3K (Table 1).
3.1 Detection reagents: PIK3CA/PIK3R1 purchased from Invitrogen (Cat #: PV4788): The active kinase was diluted with kinase diluent III; and mixed with bovine serum albumin (BSA) in a ratio of 1:4 (5×dilution). The final BSA concentration was 50 ng/ml; and the compositions of Kinase Detection Solution I were: 25 mM MOPS, pH7.2, 12.5 mM β-glycerophosphate, 25 mM magnesium chloride, 5 mM EGTA, and 2 mM EDTA. Before use, 0.25 mM DTT was added to Kinase Detection Solution I; 250 μM adenosine triphosphate (ATP) Detection solution: 0.55 mg of ATP was dissolved in 4 ml of Kinase Detection Solution I, subdivided in 200 μl/vial and stored at −20° C. Substrate: Phosphatidylinositol (4,5) bis-phosphate; this substrate was diluted with Kinase Detection Solution I to a concentration of 125 μM. Final concentrations were: 10 μM PIP2, 10 μM ATP, 1% DMSO, and 0.0005-10 μM compounds.
a) Experimental Procedure: • 3.2.1 50 μL of the compounds diluted with dimethyl sulfoxide (DMSO) at a concentration of 100 μM were added to the 384-well dilution plate. The compounds were diluted with dimethyl sulfo de (DMSO) in a ratio of 1:3 (10 dilution concentrations plus 1 zero concentration). • 3.2.2 5 μL of the diluted compounds were transferred to the corresponding 384-well black Proxi plate (containing 47.5 μL of detection solution/well), and shaked for several seconds. • 3.2.3 2 μL of 2.5×PI3K working solution was added to 384-well black Proxi plate. • 3.2.4 2 μL of the diluted compounds were added to the detection plate (3 wells for each concentration). • 3.2.5 The plate was incubated at room temperature for 2 h. • 3.2.6 5 μL of ADP Glo Reagent was added. • 3.2.7 The plate was incubated at room temperature for 40 minutes. • 3.2.8 10 μL of the kinase detection reagent was added. • 3.2.9 The plate was incubated at room temperature for 40 minutes. • 3.2.10 The activity was detected by using Envision Reader.
The inhibition of the mTOR […] activity by the compounds ranges in 0.5 to several hundreds nanomoles, see Table 1.

[2] = Solubility test in common aqueous vehicles; assay type: physicochemical; settings: 25° C., pH = 3

PI3K-alpha (PIK3CA/PIK3R1), sequence (P42336 whole entry, looked up): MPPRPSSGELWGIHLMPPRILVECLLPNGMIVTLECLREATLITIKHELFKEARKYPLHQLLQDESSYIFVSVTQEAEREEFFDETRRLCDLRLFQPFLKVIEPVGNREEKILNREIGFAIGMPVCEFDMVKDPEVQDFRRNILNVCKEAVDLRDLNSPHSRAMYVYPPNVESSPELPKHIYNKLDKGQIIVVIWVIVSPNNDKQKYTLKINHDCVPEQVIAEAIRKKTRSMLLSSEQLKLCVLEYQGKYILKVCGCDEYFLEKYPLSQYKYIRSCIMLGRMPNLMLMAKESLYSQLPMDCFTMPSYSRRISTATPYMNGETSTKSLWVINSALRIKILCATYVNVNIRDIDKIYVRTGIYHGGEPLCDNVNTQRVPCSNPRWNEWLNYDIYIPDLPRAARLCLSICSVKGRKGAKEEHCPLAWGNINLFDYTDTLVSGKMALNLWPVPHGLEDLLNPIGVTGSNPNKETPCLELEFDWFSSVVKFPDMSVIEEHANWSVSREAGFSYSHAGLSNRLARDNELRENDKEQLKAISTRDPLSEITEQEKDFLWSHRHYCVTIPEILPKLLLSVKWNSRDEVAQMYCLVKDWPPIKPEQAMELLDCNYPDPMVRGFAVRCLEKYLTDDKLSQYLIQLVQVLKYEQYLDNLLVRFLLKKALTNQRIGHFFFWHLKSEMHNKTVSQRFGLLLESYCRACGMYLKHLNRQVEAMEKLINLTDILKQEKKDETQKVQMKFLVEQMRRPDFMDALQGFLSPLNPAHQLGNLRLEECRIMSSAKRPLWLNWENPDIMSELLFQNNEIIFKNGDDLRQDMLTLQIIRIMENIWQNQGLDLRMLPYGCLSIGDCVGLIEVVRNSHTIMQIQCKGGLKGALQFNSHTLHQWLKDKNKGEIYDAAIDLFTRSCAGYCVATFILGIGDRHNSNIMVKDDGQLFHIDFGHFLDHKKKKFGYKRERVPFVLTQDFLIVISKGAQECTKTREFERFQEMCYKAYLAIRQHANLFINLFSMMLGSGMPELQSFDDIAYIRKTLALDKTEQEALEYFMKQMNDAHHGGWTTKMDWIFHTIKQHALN
PI3K-alpha (PIK3CA/PIK3R1), sequence (P27986 whole entry partner, looked up): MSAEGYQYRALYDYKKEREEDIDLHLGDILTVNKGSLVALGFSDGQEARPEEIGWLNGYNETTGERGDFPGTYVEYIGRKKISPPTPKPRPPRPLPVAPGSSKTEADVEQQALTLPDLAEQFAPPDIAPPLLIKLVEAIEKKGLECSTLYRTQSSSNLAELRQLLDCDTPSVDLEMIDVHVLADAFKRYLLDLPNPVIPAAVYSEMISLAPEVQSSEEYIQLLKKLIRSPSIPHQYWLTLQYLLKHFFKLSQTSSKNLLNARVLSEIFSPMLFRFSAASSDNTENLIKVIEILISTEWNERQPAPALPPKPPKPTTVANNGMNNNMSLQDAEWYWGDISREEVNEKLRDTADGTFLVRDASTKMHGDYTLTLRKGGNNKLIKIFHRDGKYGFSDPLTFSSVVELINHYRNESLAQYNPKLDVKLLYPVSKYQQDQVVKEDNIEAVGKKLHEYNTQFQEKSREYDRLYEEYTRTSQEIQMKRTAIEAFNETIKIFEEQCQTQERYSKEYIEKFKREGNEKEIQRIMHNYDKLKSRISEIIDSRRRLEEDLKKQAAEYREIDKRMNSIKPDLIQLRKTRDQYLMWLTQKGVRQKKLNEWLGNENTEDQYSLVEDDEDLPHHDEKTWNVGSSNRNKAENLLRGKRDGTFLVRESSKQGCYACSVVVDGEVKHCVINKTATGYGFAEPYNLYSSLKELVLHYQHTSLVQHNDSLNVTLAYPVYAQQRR

For `Cn1cc(-c2ccc(-c3ccc4ncc5c(c4c3)n(C3CCCN(S(C)(=O)=O)C3)c(=O)n5C)cn2)cn1` (centres unmarked) [Example 3, 3-methyl-8-(6-(1-methyl-1H-pyrazol-4-yl)pyridin-3-yl)-1-(1-(methanesulfonyl)piperidin-3-yl)-1H-imidazo[4,5-c]quinolin-2(3H)-one], the EC50 (PC-3) was under 50 nM and the IC50 [1] was under 10 nM.
`Cn1cc(-c2ccc(-c3ccc4ncc5c(c4c3)n([C@H]3CC[C@@H](O)CC3)c(=O)n5C)cn2)cn1` [Example 18, 1-((1s,4s)-4-hydroxycyclohexyl)-3-methyl-8-(6-(1-methyl-1H-pyrazol-4-yl)pyridin-3-yl)-1H-imidazo[4,5-c]quinolin-2(3H)-one] gave an EC50 (PC-3) of under 50 nM, an IC50 [1] of under 10 nM and a solubility ([2]; aqueous buffer, water) of over 5000 µg/mL.
For `Cn1cc(-c2ccc(-c3ccc4ncc5c(c4c3)n([C@H]3CCN(S(C)(=O)=O)C3)c(=O)n5C)cn2)cn1` [Example 28, (S)-3-methyl-8-(6-(1-methyl-1H-pyrazol-4-yl)pyridin-3-yl)-1-(1-(methanesulfonyl)pyrrolidin-3-yl)-1H-imidazo[4,5-c]quinolin-2(3H)-one], the EC50 (PC-3) was under 50 nM, the IC50 [1] was under 10 nM and the solubility ([2]; aqueous with cosolvent or surfactant or cyclodextrin, 30% sulfobutyl-β-cyclodextrin) was over 3000 µg/mL.
With `Cn1cc(-c2ccc(-c3ccc4ncc5c(c4c3)n([C@@H]3CCCN(S(C)(=O)=O)C3)c(=O)n5C)cn2)cn1` [Example 31, (R)-3-methyl-8-(6-(1-methyl-1H-pyrazol-4-yl)pyridin-3-yl)-1-(1-(methanesulfonyl)piperidin-3-yl)-1H-imidazo[4,5-c]quinolin-2(3H)-one] the EC50 (PC-3) was 19 nM, the IC50 [1] was under 10 nM and the solubility ([2]; aqueous buffer, water) was over 5000 µg/mL.
